Assays:
[1] = Ratio of Dihydrofolate reductase inhibitory activity in rat to Pneumocystis carinii
[2] = Ratio of Dihydrofolate reductase inhibitory activity in rat to Mycobacterium avium
[3] = Ratio of Dihydrofolate reductase inhibitory activity in rat to Toxoplasma gondii
Dihydrofolate reductase [4] = molecular target: T1, Dihydrofolate reductase (Rattus norvegicus, UniProt Q920D2); assay: Inhibitory activity against DHFR (Dihydrofolate reductase) from Rat liver
T1 sequence (Q920D2 whole entry): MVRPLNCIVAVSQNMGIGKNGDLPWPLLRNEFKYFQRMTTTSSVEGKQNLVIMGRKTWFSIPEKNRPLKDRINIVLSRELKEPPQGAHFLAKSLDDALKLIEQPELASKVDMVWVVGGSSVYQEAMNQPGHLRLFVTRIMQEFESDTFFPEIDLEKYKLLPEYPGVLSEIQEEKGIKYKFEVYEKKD

Dihydrofolate reductase [5] = molecular target: T2, Dihydrofolate reductase (Mycobacterium avium, UniProt O30463); assay: Inhibitory activity against DHFR (Dihydrofolate reductase) from Mycobacterium avium
T2 sequence (O30463 whole entry): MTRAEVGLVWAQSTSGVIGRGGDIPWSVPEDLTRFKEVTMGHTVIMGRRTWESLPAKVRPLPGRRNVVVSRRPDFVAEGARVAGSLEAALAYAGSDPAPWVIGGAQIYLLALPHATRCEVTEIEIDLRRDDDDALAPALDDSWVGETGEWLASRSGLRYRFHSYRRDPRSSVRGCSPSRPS

Dihydrofolate reductase [6] = molecular target: T3, Dihydrofolate reductase (Pneumocystis carinii, UniProt P16184)
T3 sequence (P16184 whole entry): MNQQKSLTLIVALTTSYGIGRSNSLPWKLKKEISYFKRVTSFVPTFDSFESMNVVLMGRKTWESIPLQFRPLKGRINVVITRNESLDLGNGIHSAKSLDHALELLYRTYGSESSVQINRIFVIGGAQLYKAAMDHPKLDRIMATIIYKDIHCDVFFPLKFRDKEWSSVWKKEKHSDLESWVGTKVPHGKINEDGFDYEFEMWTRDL
Description: Inhibitory activity against DHFR (Dihydrofolate reductase) from Pneumocystis carinii.

[7] = molecular target: T4, Bifunctional dihydrofolate reductase-thymidylate synthase (Toxoplasma gondii, UniProt Q07422); assay: Inhibitory activity against DHFR (Dihydrofolate reductase) from Toxoplasma gondii.
T4 sequence (Q07422 whole entry): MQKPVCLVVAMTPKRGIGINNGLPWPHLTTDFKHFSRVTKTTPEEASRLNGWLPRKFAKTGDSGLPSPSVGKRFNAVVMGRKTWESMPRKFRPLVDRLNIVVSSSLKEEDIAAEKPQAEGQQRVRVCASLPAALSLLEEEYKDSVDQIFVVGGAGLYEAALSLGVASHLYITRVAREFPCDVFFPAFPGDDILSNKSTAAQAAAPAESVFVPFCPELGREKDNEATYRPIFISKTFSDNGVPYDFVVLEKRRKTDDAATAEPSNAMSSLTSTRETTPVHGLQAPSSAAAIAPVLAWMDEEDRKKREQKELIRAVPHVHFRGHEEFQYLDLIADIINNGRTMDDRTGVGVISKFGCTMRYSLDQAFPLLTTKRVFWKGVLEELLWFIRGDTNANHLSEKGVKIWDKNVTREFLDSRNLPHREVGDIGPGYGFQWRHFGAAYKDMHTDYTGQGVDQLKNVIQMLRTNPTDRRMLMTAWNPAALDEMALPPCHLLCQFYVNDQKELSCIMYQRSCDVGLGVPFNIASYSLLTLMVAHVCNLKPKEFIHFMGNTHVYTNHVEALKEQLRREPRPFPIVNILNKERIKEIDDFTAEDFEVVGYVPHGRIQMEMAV

| SMILES | Selectivity ratio [1] | Selectivity ratio [2] | Selectivity ratio [3] | IC50 (Dihydrofolate reductase [4]) | IC50 (Dihydrofolate reductase [5]) | IC50 (Dihydrofolate reductase [6]) | IC50 [7] |
| --- | --- | --- | --- | --- | --- | --- | --- |
| Nc1nc(N)c2nc(CN(c3ccccc3)c3ccccc3)cnc2n1 | 0.82 | 1.1 | 3.1 | 4000 nM | 3700 nM |  |  |
| Nc1nc(N)c2nc(CN3c4ccccc4CCc4ccccc43)cnc2n1 | 3.6 |  | 5.6 |  |  |  |  |
| Nc1nc(N)c2nc(CN3c4ccccc4Cc4ccccc43)cnc2n1 | 0.64 | 1.6 | 0.93 | 27 nM | 17 nM | 42 nM | 29 nM |
| Nc1nc(N)c2nc(Cn3c4ccccc4c4ccccc43)cnc2n1 | 0.55 |  | 4.6 | 55 nM |  | 100 nM | 12 nM |
| Nc1nc(N)c2nc(CN3c4ccccc4Sc4ccccc43)cnc2n1 | 1.7 | 6.9 | 1.8 | 200 nM | 29 nM | 120 nM | 110 nM |
| Nc1nc(N)c2nc(CN3c4ccccc4Oc4ccccc43)cnc2n1 |  |  |  | 13000 nM |  | 3400 nM | 2200 nM |
| Nc1nc(N)c2nc(CN3c4ccccc4C=Cc4ccccc43)cnc2n1 | 21 | 367 | 102 |  | 12 nM |  | 43 nM |
